Paper PMC6722685, “A Novel Marine Natural Product Derived Pyrroloiminoquinone with Potent Activity against Skin Cancer Cells” (Marine Drugs, 2019)

How the values were obtained:
[1] = test system: SCC13 cells; experiment: MTT assay for cell viability, SCC13 cells; format: cell-based, human; settings: for IC50 / IC90: Homo sapiens, SCC-13, MTT, 24 h treatment, mean ± SD, n = 4; for IC50: read-out: SSC13 Cells IC50 ± SD; for IC90: read-out: SSC13 Cells IC90 ± SD
Method: (§1) We first investigated the dose-dependent effects of all five compounds on the cell viability of human skin cancer cell line, SCC13 as well as an immortalized human skin keratinocyte cell line, HaCaT through MTT assay. […] IC50 and IC90 values for these compounds against these two cell lines were calculated (Table 1). There were statistically significant differences between these two values with p < 0.05.
(§2) All cell lines were seeded on a 96-well cell culture plate at 2 × 10^5 cells per well. After 24 h, the cells were treated with increasing doses of the compounds (0, 0.0625 μM, 0.125 μM, 0.25 μM, 0.5 μM, 1.0 μM). After incubation for 24 h, the medium was removed and 100 μL of MTT solution (500 µg/mL) in PBS was added and kept for 4 h at 37 °C. The formazan crystals thus formed were dissolved in DMSO and the optical density (OD) was measured at 570 nm using a microplate reader (BioTek Synergy H1 Plate Reader, Winooski, VT, USA).

[2] = test system: HaCaT cells; experiment: MTT assay for cell viability, HaCaT cells; format: cell-based; settings: 24 h treatment, normal human keratinocytes, mean ± SD, n = 4
Method: as §1, §2

[3] = test system: beclin-1; experiment: Western blot, beclin-1 expression in SCC13 cells; format: cell-based, human; settings: SCC13 cells, 0.25, 0.5 and 1 µM, 24 h
Method: (§3) Figure 5 Effect of C278 on apoptotic and autophagy related proteins in SCC13 cells. SCC13 cells were treated with 0.1% DMSO and 0.25, 0.5 and 1 µM of C278 for 24 h. The cells were then lysed in cell lysis buffer and protein was estimated. Western blot was performed to estimate the level of expression for human Bcl2, Cleaved-PARP and Beclin-1. The expression of these proteins was normalized using β-Actin as a loading control. Figures are representatives of 2 independent experiments. Bands were analyzed densiometrically and bar graphs expressing arbitrary units are presented adjacent to the western blot. Error bar represents mean ± SD, n = 4. * p < 0.01. ** p < 0.001.
(§4) SCC13 cells (1–2 × 10^6) cultured in 6-well culture plate were treated with different concentrations of C278 for 24 h. Cells were then lysed in cell lysis buffer containing protease inhibitor cocktail and the protein concentrations in the cleared supernatants were estimated using the bicinchoninic acid (BCA) protein assay. The cell lysates were resolved by 10% SDS-PAGE and transferred to nitrocellulose membrane (BioRad, Hercules, CA, USA). […] Membranes were then washed three times with wash buffer (TBS containing 0.5% Tween), and then incubated with horseradish peroxidase (HRP)-conjugated secondary Ab and detected by enhanced chemiluminescence (ECL) detection system according to the manufacturer’s instructions.

[4] = test system: Bcl-2; experiment: Western blot, Bcl-2 expression in SCC13 cells; format: cell-based, human; settings: SCC13 cells, 0.25, 0.5 and 1 µM, 24 h
Method: as §3, §4

[5] = test system: SCC13 cells; experiment: Cell invasion (trans-well, Matrigel) assay; format: cell-based, human; settings: 24 h, control group 56.50 ± 4.95%
Method: (§5) Figure 4 Effect of C278 on migration and invasion ability of the SCC13 cells. (A) SCC13 cells were allowed to proliferate in a 24-well plate until reaching confluency. A scratch was made on the plate using a pipette tip. The unattached cells were washed off. The cells were then treated with either 0.1% DMSO or two doses of C278 (0.5 µM and 1.0 µM) and incubated for 24 h. The images were captured at the time of drug treatment and after 24 h of incubation through a light microscope. (Scale bar: 200 µM). (B) Percent wound closure was measured using Image J software and plotted in bar graphs. Results are combined from two independent experiments and presented as mean ± SD; n = 4. (C) SCC13 cells were seeded in the invasion chambers and incubated for 4 h. Now the cells were treated either with 0.1% DMSO or two doses of C278 (0.5 µM and 1.0 µM) for 24 h. The cells from the upper surface of the membrane were removed with cotton swabs. The invaded cells, which were in the lower surface of the membrane, were stained with crystal violet. Images of the invaded cells were captured using a light microscope. (D) The average number of cells invaded was counted in each group and plotted in bar graphs. Results are presented as mean ± SD; n = 4. * p < 0.01, ** p < 0.001, *** p < 0.0001. […]

[6] = test system: SCC13 cells; experiment: Wound healing (cell migration) assay; format: cell-based, human; settings: 24 h, control group 93.37 ± 3.35
Method: as §5, with “graphs.” for “graphs. Results are presented as mean ± SD; n = 4. * p < 0.01, ** p < 0.001, *** p < 0.0001.”
SCC13 cells were seeded on 24-well cell culture plate at a density of 2 × 10^5 cells/well and cultured until cells were confluent. […] Percent change in wound area was measured by Image J software.

[7] = test system: proliferating cell nuclear antigen (PCNA); experiment: Western blot, PCNA expression in SCC13 cells; format: cell-based, human; settings: 24 h, dose-dependent
Method: Figure 3 Effects of C278 on the viability of SCC13 and HaCaT cells (A) SCC13 cells were treated with increasing concentrations of C278 at 24 h, and the percentage cell viability was estimated. Results are combined from two independent experiments and are presented as mean ± SD; n = 4. (B) HaCaT cells were treated with increasing concentrations of C278 at 24 h, and the percentage cell viability was estimated. Results are combined from two independent experiments and are presented as mean ± SD; n = 4. (C) Expression of PCNA was measured through western blot. The expression of this protein was normalized using β-Actin as a loading control. Figures are representatives of 2 independent experiments. (D) Densiometric analysis of bands was performed and the bar graphs expressing arbitrary units are presented. Error bar represents mean ± SD, n = 4. * p < 0.01, ** p < 0.001, *** p < 0.0001.
SCC13 cells (1–2 × 10^6) cultured in 6-well culture plate were treated with different concentrations of C278 for 24 h. […] Membranes were then washed three times with wash buffer (TBS containing 0.5% Tween), and then incubated with horseradish peroxidase (HRP)-conjugated secondary Ab and detected by enhanced chemiluminescence (ECL) detection system according to the manufacturer’s instructions.

[8] = test system: cleaved-PARP; experiment: Western blot, cleaved-PARP in SCC13 cells; format: cell-based, human; settings: SCC13 cells, 0.25, 0.5 and 1 µM, 24 h
Method: as §3, §4

Compound	IC50 [1] [nM]	IC90 [1] [nM]	IC50 [2] [nM]	IC90 [2] [nM]	selectivity for killing SCC13 cells compared to HaCaT cells ([1]; SCC13 vs HaCaT)	expression of beclin-1 [3]	expression of Bcl-2 protein [4]	number of invasive cells ([5]; 0.5 μM) [%]	number of invasive cells ([5]; 1.0 μM) [%]	Percent wound closure ([6]; 0.5 μM) [%]	Percent wound closure ([6]; 1.0 μM) [%]	expression of PCNA [7]	production of cleaved-PARP [8]
Cc1ccc(S(=O)(=O)n2cc3c4c2C(=O)C(NCc2ccccc2)=CC4=NCC3)cc1 [Compound C11]	510 ± 30	920 ± 60	480 ± 10	870 ± 30	–	–	–	–	–	–	–	–	–
Cc1ccc(S(=O)(=O)n2cc3c4c2C(=O)C(NCCc2ccc5c(c2)OCO5)=CC4=NCC3)cc1 [Compound C15]	5310 ± 190	9560 ± 350	730 ± 90	1320 ± 160	–	–	–	–	–	–	–	–	–
O=C1C(NCc2cccs2)=CC2=NCCc3c[nH]c1c32 [Compound C278]	500 ± 110	900 ± 210	1150 ± 210	2070 ± 370	two-fold	increased in a dose-dependent manner	significantly downregulated	32.00 ± 4.24	19.50 ± 4.95	69.06 ± 2.91	39.53 ± 2.17	downregulation	increased in a dose-dependent manner
O=C1C(NCCc2ccc3c(c2)OCO3)=CC2=NCCc3c[nH]c1c32 [Compound C238]	820 ± 20	1480 ± 40	2350 ± 210	4230 ± 360	–	–	–	–	–	–	–	–	–
Cc1ccc(S(=O)(=O)n2cc3c4c2C(=O)C(NCc2ccco2)=CC4=NCC3)cc1 [Compound C45]	2580 ± 230	4650 ± 420	5240 ± 80	9430 ± 150	–	–	–	–	–	–	–	–	–
